From US12371428B2 (Exelixis, Inc., priority 2019, dated 2025)

Assays:
[1] = molecular target: Human MET (residues 956-1390) (Homo sapiens (Human), UniProt P08581); assay: Human Met kinase assay, HTRF KinEase (Example D-2); format: biochemical; settings: protocol of Example D-2 (other compounds); read-out: c-Met IC50
Outline: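 MET kinase domain (956-1390), 0.1 ng/well, in buffer with 5 mM MgCl2, 1 mM DTT and 1 mM MnCl2, phosphorylated a biotinylated peptide at ATP Km for 40 min at RT; 10 concentrations, 3% DMSO final. EDTA-stopped HTRF read after 60 min; IC50 from a 4-parameter logistic fit.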

[2] = molecular target: Mer (phospho-Mer, MERTK-transfected 293A cells) (Homo sapiens (Human), UniProt Q12866); assay: Mer autophosphorylation ELISA in transient transfected 293A cells (Example H); format: cell-based; settings: cellular activity; Mer autophosphorylation ELISA in transient transfected 293A cells
Mer (phospho-Mer, MERTK-transfected 293A cells), sequence (Q12866 21-999): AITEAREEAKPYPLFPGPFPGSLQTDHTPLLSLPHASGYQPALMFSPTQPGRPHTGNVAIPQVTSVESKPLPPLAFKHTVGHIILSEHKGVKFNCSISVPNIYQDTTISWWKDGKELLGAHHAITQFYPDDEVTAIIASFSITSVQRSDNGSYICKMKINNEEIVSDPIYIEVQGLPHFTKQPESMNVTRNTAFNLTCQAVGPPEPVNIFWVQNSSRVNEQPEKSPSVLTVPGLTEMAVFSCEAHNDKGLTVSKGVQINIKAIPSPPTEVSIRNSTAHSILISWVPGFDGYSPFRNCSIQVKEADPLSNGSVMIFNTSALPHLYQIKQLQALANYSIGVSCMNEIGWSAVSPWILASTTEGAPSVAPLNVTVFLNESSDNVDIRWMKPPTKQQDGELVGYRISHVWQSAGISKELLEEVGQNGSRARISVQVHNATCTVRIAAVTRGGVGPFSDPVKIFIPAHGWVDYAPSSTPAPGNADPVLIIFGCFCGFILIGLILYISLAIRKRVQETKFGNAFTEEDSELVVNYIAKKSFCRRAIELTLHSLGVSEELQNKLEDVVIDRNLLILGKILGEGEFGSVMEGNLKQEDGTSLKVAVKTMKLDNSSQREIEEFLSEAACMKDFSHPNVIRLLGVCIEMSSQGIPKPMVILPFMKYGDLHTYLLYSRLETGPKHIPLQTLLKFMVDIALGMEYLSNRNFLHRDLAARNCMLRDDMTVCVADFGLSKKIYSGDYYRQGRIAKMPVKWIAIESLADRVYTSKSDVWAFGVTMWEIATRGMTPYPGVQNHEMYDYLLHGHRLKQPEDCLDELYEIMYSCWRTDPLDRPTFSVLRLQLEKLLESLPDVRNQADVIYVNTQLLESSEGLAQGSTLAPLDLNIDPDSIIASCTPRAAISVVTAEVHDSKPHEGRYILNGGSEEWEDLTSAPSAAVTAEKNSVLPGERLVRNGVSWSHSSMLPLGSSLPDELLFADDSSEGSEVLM
Outline: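 293A cells transiently transfected with human MERTK were treated 1 h in serum-free medium with an 8-point compound dilution (0.3% DMSO final). Lysates were assayed by phospho-Mer sandwich ELISA against a phospho-Mer standard; IC50 came from a 4-parameter logistic fit, normalised to DMSO (100%) and reference-inhibitor (0%) controls.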

Human MET (residues 956-1390), sequence (P08581 956-1390): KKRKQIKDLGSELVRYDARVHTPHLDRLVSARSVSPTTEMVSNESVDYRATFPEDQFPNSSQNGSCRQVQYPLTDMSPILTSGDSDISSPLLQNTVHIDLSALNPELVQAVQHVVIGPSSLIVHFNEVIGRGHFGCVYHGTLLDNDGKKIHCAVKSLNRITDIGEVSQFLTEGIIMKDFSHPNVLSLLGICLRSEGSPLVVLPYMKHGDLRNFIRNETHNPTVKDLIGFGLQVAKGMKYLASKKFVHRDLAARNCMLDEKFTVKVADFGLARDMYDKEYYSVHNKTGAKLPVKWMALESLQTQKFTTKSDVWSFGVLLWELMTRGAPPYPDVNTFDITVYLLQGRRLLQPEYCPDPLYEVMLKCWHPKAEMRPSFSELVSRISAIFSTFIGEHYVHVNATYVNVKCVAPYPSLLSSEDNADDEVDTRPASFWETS

| SMILES | IC50 [1] | IC50 [2] |
| --- | --- | --- |
| COc1cc2nccc(Oc3ccc(NC(=O)c4cn(C)c(C)c(-c5ccc(F)cc5)c4=O)cc3F)c2nc1OC [Compound 58, N-[4-[(6,7-Dimethoxy-1,5-naphthyridin-4-yl)oxy]-3-fluorophenyl]-5-(4-fluorophenyl)-1,6-dimethyl-4-oxopyridine-3-carboxamide] | < 0.1 µM | < 0.1 µM |
| CCn1cc(C(=O)Nc2ccc(Oc3ccnc4cc(OC)c(OC)nc34)c(F)c2)c(=O)c(-c2ccc(F)cc2)c1C [Compound 63, N-[4-[(6,7-Dimethoxy-1,5-naphthyridin-4-yl)oxy]-3-fluorophenyl]-1-ethyl-5-(4-fluorophenyl)-6-methyl-4-oxopyridine-3-carboxamide] | < 0.1 µM | < 0.1 µM |
| CCn1cc(C(=O)Nc2ccc(Oc3ccnc4cc(O)cnc34)c(F)c2)c(=O)c(-c2ccc(F)cc2)c1C [Compound 410, 1-ethyl-N-[3-fluoro-4-[(7-hydroxy-1,5-naphthyridin-4-yl)oxy]phenyl]-5-(4-fluorophenyl)-6-methyl-4-oxopyridine-3-carboxamide] | < 0.1 µM | 0.1 to 0.3 µM |
| COc1cnc2c(Oc3ccc(NC(=O)c4cn(C)c(Cl)c(-c5ccc(F)cc5)c4=O)cc3F)ccnc2c1 [Compound 411, 6-chloro-N-[3-fluoro-4-[(7-methoxy-1,5-naphthyridin-4-yl)oxy]phenyl]-5-(4-fluorophenyl)-1-methyl-4-oxopyridine-3-carboxamide] | < 0.1 µM | < 0.1 µM |
| COc1cc2nccc(Oc3ccc(NC(=O)c4nn(C)c(C)c(-c5ccc(F)cc5)c4=O)cc3)c2nc1OC [Compound 91, N-[4-[(6,7-Dimethoxy-1,5-naphthyridin-4-yl)oxy]phenyl]-5-(4-fluorophenyl)-1,6-dimethyl-4-oxopyridazine-3-carboxamide] | < 0.1 µM | < 0.1 µM |
| COc1ccc2nccc(Oc3ccc(NC(=O)c4cn(C5CC5)c(C)c(-c5ccc(F)cc5C)c4=O)cc3F)c2n1 [Compound 441, 1-cyclopropyl-N-[3-fluoro-4-[(6-methoxy-1,5-naphthyridin-4-yl)oxy]phenyl]-5-(4-fluoro-2-methylphenyl)-6-methyl-4-oxopyridine-3-carboxamide] | 0.1 to 0.3 µM | < 0.1 µM |
| COc1cc2nccc(Oc3ccc(NC(=O)c4cn(C)c(Cl)c(-c5ccc(F)cc5)c4=O)cc3F)c2nc1OC [Compound 412, 6-chloro-N-[4-[(6,7-dimethoxy-1,5-naphthyridin-4-yl)oxy]-3-fluorophenyl]-5-(4-fluorophenyl)-1-methyl-4-oxopyridine-3-carboxamide] | < 0.1 µM | < 0.1 µM |
| COc1cc2nccc(Oc3ccc(NC(=O)c4cc(C(C)=O)c(C)n(-c5ccc(F)cc5)c4=O)cc3F)c2nc1OC [Compound 86, 5-Acetyl-N-[4-[(6,7-dimethoxy-1,5-naphthyridin-4-yl)oxy]-3-fluorophenyl]-1-(4-fluorophenyl)-6-methyl-2-oxopyridine-3-carboxamide] | < 0.1 µM | < 0.1 µM |
| COc1nc2c(Oc3ccc(NC(=O)c4c(C)nc(C)c(-c5ccc(F)cc5)c4O)cc3F)ccnc2cc1O [Compound 431, N-[3-fluoro-4-[(7-hydroxy-6-methoxy-1,5-naphthyridin-4-yl)oxy]phenyl]-5-(4-fluorophenyl)-4-hydroxy-2,6-dimethylpyridine-3-carboxamide] | < 0.1 µM | < 0.1 µM |
| COc1cc2nccc(Oc3ccc(NC(=O)c4cnc(C)c(-c5ccc(F)cc5C)c4O)cc3F)c2nc1OCCCN1CCOCC1 [Compound 425, N-[3-fluoro-4-[[7-methoxy-6-(3-morpholin-4-ylpropoxy)-1,5-naphthyridin-4-yl]oxy]phenyl]-5-(4-fluoro-2-methylphenyl)-4-hydroxy-6-methylpyridine-3-carboxamide] | < 0.1 µM | < 0.1 µM |
